Like-named read-outs stand apart in the source and are kept apart here. Peptide text beside a SMILES is read from it. * marks the point of attachment. Stearoyl = CCCCCCCCCCCCCCCCCC(=O)*
Experiments:
Format in all cases: cell-based
[1] = biological target: HIV-1 CH040.c/2625; details: Table 2; CH040.c/2625, subtype B, R5; mean ± SD of 3 assays in triplicate
Method in brief: (§1)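 Env-pseudotyped luciferase-reporter viruses (pSG3Δenv backbone) or replication-competent clones made in HEK293T. 3-fold inhibitor dilutions preincubated 1 h at room temperature with 100 TCID50 virus, then added to TZM-bl cells (10^4/well) for 48 h at 37 °C; inhibition read as luciferase activity.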

[2] = biological target: HIV-1 LAI; details: Table 2, subtype B, X4, mean ± SD of 3 assays in triplicate
Method in brief: as §1

[3] = biological target: HIV-1 NL4-3; details: Table 2; NL4-3, subtype B, X4; mean ± SD of 3 assays in triplicate
Method in brief: as §1

[4] = biological target: HIV-1 R3A; details: Table 2, subtype B, R5X4, mean ± SD of 3 assays in triplicate
Method in brief: as §1

[5] = biological target: HIV-1 RHPA.c/2635; details: Table 2; RHPA.c/2635, subtype B, R5; mean ± SD of 3 assays in triplicate
Method in brief: as §1

[6] = biological target: HIV-1 SG3; details: Table 2; SG3, subtype B, X4; mean ± SD of 3 assays in triplicate
Method in brief: as §1

[7] = biological target: HIV-1 THRO.c/2626; details: Table 2; THRO.c/2626, subtype B, R5; mean ± SD of 3 assays in triplicate
Method in brief: as §1

[8] = biological target: HIV-1 WITO.c/2474; details: Table 2; WITO.c/2474, subtype B, R5; mean ± SD of 3 assays in triplicate
Method in brief: as §1

[9] = tested on: HIV-1 pseudovirus, primary Env 246_F3_C10_2; details: Env 246_F3_C10_2, subtype A/C; mean ± SD of 3 assays in triplicate
Method in brief: as §1

[10] = tested on: HIV-1 pseudovirus, primary Env 92UG037.8; details: Env 92UG037.8, subtype A; mean ± SD of 3 assays in triplicate
Method in brief: as §1

[11] = tested on: HIV-1 pseudovirus, primary Env B02; details: Env B02, subtype B'; mean ± SD of 3 assays in triplicate
Method in brief: as §1

[12] = tested on: HIV-1 pseudovirus, primary Env B04; details: Env B04, subtype B'; mean ± SD of 3 assays in triplicate
Method in brief: as §1

[13] = tested on: HIV-1 pseudovirus, primary Env CAP45.2.00.G3; details: Env CAP45.2.00.G3, subtype C; mean ± SD of 3 assays in triplicate
Method in brief: as §1

[14] = tested on: HIV-1 pseudovirus, primary Env CE1176_A3; details: Env CE1176_A3, subtype C; mean ± SD of 3 assays in triplicate
Method in brief: as §1

[15] = tested on: HIV-1 pseudovirus, primary Env CH119.10; details: Env CH119.10, subtype B/C; mean ± SD of 3 assays in triplicate
Method in brief: as §1

[16] = tested on: HIV-1 pseudovirus, primary Env CH120.6; details: Env CH120.6, subtype B/C; mean ± SD of 3 assays in triplicate
Method in brief: as §1

[17] = tested on: HIV-1 pseudovirus, primary Env CH64.20; details: Env CH64.20, subtype B/C; mean ± SD of 3 assays in triplicate
Method in brief: as §1

[18] = tested on: HIV-1 pseudovirus, primary Env CNE55; details: Env CNE55, subtype A/E; mean ± SD of 3 assays in triplicate
Method in brief: as §1

[19] = tested on: HIV-1 pseudovirus, primary Env Du156; details: Env Du156, subtype C; mean ± SD of 3 assays in triplicate
Method in brief: as §1

[20] = tested on: HIV-1 pseudovirus, primary Env HIV_25710–2.43; details: Env HIV_25710–2.43, subtype C; mean ± SD of 3 assays in triplicate
Method in brief: as §1

[21] = tested on: HIV-1 pseudovirus, primary Env JRFL; details: subtype B, mean ± SD of 3 assays in triplicate
Method in brief: as §1

[22] = tested on: HIV-1 pseudovirus, primary Env PVO; details: subtype B, mean ± SD of 3 assays in triplicate
Method in brief: as §1

[23] = tested on: HIV-1 pseudovirus, primary Env SC422661.8; details: Env SC422661.8, subtype B; mean ± SD of 3 assays in triplicate
Method in brief: as §1

[24] = tested on: HIV-1 pseudovirus, primary Env X1632-S2-B10; details: Env X1632-S2-B10, subtype G; mean ± SD of 3 assays in triplicate
Method in brief: as §1

[25] = tested on: HIV-1 pseudovirus, primary Env pREJO4541; details: Env pREJO4541, subtype B; mean ± SD of 3 assays in triplicate
Method in brief: as §1

[26] = biological target: HIV-1JRCSF
Method in brief: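 HEK293T-derived virus (Env + pSG3Δenv pseudovirus, or molecular-clone isolate), titred as TCID50 on TZM-bl; 100 TCID50 + 3-fold cmpd dilutions, 1 h RT; onto TZM-bl 10^4/well, 48 h 37°C; luciferase read-out.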

[27] = tested on: HIV-1 pseudovirus, primary Env BJOX002000.03.2; details: Env BJOX002000.03.2, subtype B/C; mean ± SD of 3 assays in triplicate
Method in brief: as §1

[28] = Fig 1, replication-competent virus, mean ± SD of three assays in triplicate, read-out: Anti-HIV activity (IC50, pM) JRCSF infection
[29] = Table 2, JR-CSF, subtype B, R5, mean ± SD of 3 assays in triplicate, read-out: Mean IC50

Compound | IC50 [1] [nM] | IC50 [2] [nM] | IC50 [4] [nM] | IC50 [5] [nM] | IC50 [6] [nM] | IC50 [7] [nM] | IC50 [8] [nM] | IC50 [9] [nM] | IC50 [10] [nM] | IC50 [11] [nM] | IC50 [12] [nM] | IC50 [13] [nM] | IC50 [14] [nM] | IC50 [15] [nM] | IC50 [16] [nM] | IC50 [17] [nM] | IC50 [18] [nM] | IC50 [19] [nM] | IC50 [20] [nM] | IC50 [21] [nM] | also measured
CCCCCCCCCCCCCCCCCC(=O)NCCCC[C@H](NC(=O)[C@H](CCC(=O)O)NC(=O)[C@H](CC(C)C)NC(=O)[C@H](CCCCN)NC(=O)[C@H](CCCCN)NC(=O)[C@H](CC(C)C)NC(=O)[C@H](CCC(=O)O)NC(=O)[C@H](CCC(=O)O)NC(=O)[C@H](CCC(=O)O)NC(=O)[C@H](CC(N)=O)NC(=O)[C@H](CCCCN)NC(=O)[C@H](CCCCN)NC(=O)[C@H](CCC(N)=O)NC(=O)[C@H](CCC(N)=O)NC(=O)[C@H](CCC(=O)O)NC(=O)[C@H](CCC(=O)O)NC(=O)[C@H](C)NC(=O)[C@H](CCCCN)NC(=O)[C@H](CCCCN)NC(=O)[C@H](CC(C)C)NC(=O)[C@H](CC(C)C)NC(=O)[C@H](CCC(=O)O)NC(=O)[C@H](CCC(=O)O)NC(=O)[C@@H](NC(C)=O)[C@@H](C)CC)C(N)=O [LP-90] (Ac-IEELLKKAEEQQKKNEEELKKLEK(Stearoyl)-NH2) | 0.0502 ± 0.0138 | 0.00834 ± 0.00154 | 0.00932 ± 0.00121 | 0.00536 ± 0.00166 | 0.00167 ± 0.00061 | 0.0146 ± 0.00224 | 0.00406 ± 0.00167 | 0.00684 ± 0.00047 | 0.00842 ± 0.00152 | 0.0155 ± 0.00368 | 0.0175 ± 0.00772 | 0.00214 ± 0.00013 | 0.00877 ± 0.00195 | 0.0108 ± 0.00236 | 0.0254 ± 0.00162 | 0.00772 ± 0.00267 | 0.00254 ± 0.00089 | 0.00363 ± 0.00067 | 0.016 ± 0.00293 | 0.0122 ± 0.00083 | IC50 [3]: 0.0768 ± 0.019 nM; IC50 [22]: 0.0226 ± 0.0047 nM; IC50 [23]: 0.0385 ± 0.00705 nM; IC50 [24]: 0.0284 ± 0.00411 nM; IC50 [25]: 0.0159 ± 0.00313 nM; IC50 [26, 28]: 5.4 pM; IC50 [26, 29]: 9.33 ± 1.97 pM
enfuvirtide [Lipopeptide T-20, reference compound] | 30.9 ± 3.81 | 1.16 ± 0.103 | 6.73 ± 1.08 | 6.52 ± 1.33 | 2.85 ± 0.227 | 31.3 ± 2.39 | 7.81 ± 1.62 | 36.2 ± 3.7 | 7.76 ± 1.04 | 10.4 ± 0.529 | 5.65 ± 0.366 | 13.6 ± 2.04 | 8.4 ± 0.496 | 11.5 ± 1.75 | 48.1 ± 4.92 | 33.3 ± 1.18 | 25.1 ± 2.33 | 15.7 ± 1.58 | 13.7 ± 1.85 | 9.62 ± 0.502 | IC50 [27]: 26.3 ± 2.77 nM; IC50 [22]: 69.7 ± 0.698 nM; IC50 [23]: 16.1 ± 2.24 nM; IC50 [24]: 15.6 ± 2.01 nM; IC50 [25]: 55 ± 2.9 nM; IC50 [26, 28]: 4460 ± 1400 pM; IC50 [26, 29]: 2970 ± 788 pM
